{
  "source": "ChEMBL document CHEMBL4118289",
  "about": "“Developing hybrid molecule therapeutics for diverse enzyme inhibitory action: Active role of coumarin-based structural leads in drug discovery” (Bioorg Med Chem, 2018)",
  "key": {"Rattus norvegicus [1]": {"test_system": "Rattus norvegicus", "test": "Antiinflammatory activity in albino rat assessed as inhibition of carrageenan-induced paw edema at 10 umol/kg, sc pretreated for 1 hr followed by carrageenan challenge measured after 4 hrs by plethysmographic method relative to control", "assay_type": "functional"}, "[2]": {"biological_target": "Prostaglandin G/H synthase 1 (Homo sapiens, UniProt P23219)", "sequence (P23219 whole entry)": "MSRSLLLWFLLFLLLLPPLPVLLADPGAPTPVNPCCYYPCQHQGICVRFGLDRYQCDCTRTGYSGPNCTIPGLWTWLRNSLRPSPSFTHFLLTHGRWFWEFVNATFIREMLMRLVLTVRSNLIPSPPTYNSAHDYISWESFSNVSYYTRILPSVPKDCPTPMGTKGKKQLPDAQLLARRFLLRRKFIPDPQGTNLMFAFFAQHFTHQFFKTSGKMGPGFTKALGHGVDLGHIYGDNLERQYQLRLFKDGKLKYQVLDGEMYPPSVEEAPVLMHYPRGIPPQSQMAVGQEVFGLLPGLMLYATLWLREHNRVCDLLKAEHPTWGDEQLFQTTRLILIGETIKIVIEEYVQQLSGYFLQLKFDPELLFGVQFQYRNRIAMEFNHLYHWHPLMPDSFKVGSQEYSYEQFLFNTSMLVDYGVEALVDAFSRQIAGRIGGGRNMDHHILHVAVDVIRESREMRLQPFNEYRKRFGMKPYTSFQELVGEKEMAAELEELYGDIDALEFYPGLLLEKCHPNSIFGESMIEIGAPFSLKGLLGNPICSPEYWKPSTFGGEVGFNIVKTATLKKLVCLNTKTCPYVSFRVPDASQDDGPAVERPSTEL", "test": "Inhibition of human COX1 using [14C]arachidonic acid as substrate preincubated for 5 mins followed by substrate addition measured after 2 mins by TLC"}, "[3]": {"biological_target": "Aldo-keto reductase family 1 member B1 (Bos taurus, UniProt P16116)", "test": "Inhibition of calf lens ALR2 using D,L-glyceraldehyde as substrate preincubated for 5 mins followed by NADPH addition measured after 10 mins by UV spectrophotometric method"}, "Saccharomyces cerevisiae": {"test_system": "Saccharomyces cerevisiae", "test": "Potency index, ratio of acarbose IC50 to compound IC50 for Saccharomyces cerevisiae alpha-glucosidase"}, "[4]": {"biological_target": "Lipoxygenase (Glycine max) (UniProt Q39829)", "test": "Potency index, ratio of NDGA IC50 to compound IC50 for soybean lipoxygenase"}, "Lipoxygenase": {"biological_target": "Lipoxygenase (Glycine max, UniProt Q39829)", "description": "Inhibition of soybean lipoxygenase"}, "Tyrosinase": {"biological_target": "T1, Tyrosinase (Agaricus bisporus, UniProt O42713)", "T1 sequence (O42713 whole entry)": "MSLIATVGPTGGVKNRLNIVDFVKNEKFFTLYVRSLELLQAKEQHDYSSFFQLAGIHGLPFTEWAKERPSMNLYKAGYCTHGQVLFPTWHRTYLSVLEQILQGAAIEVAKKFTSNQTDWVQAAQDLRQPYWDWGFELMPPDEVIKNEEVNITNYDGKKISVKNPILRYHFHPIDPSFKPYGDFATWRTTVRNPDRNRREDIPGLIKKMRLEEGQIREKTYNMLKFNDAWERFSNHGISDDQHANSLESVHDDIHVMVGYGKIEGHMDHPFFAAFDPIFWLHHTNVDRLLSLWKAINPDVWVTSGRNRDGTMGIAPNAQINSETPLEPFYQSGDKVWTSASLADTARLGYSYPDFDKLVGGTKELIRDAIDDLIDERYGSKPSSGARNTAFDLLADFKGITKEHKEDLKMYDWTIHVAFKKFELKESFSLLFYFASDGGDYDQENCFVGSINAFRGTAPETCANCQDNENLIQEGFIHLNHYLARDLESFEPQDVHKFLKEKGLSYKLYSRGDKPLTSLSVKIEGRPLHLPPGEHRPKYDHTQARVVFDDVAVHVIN", "test": "Inhibition of mushroom tyrosinase using L-DOPA as substrate preincubated for 10 mins followed by substrate addition measured after 20 mins"}, "Cholinesterase [5]": {"biological_target": "Cholinesterase (Equus caballus, UniProt P81908)", "sequence (P81908 whole entry)": "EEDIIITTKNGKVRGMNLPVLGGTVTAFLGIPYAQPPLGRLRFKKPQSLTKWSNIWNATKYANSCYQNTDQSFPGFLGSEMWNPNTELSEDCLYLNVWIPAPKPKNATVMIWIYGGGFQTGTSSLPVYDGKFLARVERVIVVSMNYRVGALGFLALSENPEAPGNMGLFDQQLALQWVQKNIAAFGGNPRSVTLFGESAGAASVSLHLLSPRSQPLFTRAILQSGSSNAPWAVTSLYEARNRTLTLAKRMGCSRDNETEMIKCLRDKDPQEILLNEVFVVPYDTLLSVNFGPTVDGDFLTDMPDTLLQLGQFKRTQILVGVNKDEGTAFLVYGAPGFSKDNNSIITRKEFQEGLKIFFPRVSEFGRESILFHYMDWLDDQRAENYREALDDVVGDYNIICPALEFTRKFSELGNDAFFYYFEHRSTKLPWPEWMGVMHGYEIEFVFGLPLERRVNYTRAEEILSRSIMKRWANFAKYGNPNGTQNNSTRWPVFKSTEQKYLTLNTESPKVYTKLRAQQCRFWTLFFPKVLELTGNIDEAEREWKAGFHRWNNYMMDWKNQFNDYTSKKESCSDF", "test": "Inhibition of equine serum BChE using butyrylthiocholine iodide as substrate preincubated for 15 mins followed by substrate addition by Ellman's method"}, "[6]": {"biological_target": "Cholinesterase (Equus caballus) (UniProt P81908)", "sequence (P81908 whole entry)": "as above", "test": "Potency index, ratio of galanthamine IC50 to compound IC50 for equine serum BChE"}, "[7]": {"biological_target": "Aldo-keto reductase family 1 member B1 (Bos taurus) (UniProt P16116)", "test": "Potency index, ratio of valproic acid IC50 to compound IC50 for bovine kidney ALR1"}, "Rattus norvegicus [8]": {"test_system": "Rattus norvegicus", "test": "Antiinflammatory activity in Wistar rat assessed as inhibition of formalin-induced paw oedema at 20 mg/kg, po equiv of indomethacin pretreated for 1 hr followed by formalin addition measured up to 6 hrs post dose by plethysmographic method relative to control", "assay_type": "functional"}, "Homo sapiens": {"organism": "Homo sapiens", "test": "Selectivity ratio of IC50 for human COX1 to IC50 for human COX2"}, "[9]": {"biological_target": "Intestinal-type alkaline phosphatase (Bos taurus, UniProt P19111)", "sequence (P19111 whole entry)": "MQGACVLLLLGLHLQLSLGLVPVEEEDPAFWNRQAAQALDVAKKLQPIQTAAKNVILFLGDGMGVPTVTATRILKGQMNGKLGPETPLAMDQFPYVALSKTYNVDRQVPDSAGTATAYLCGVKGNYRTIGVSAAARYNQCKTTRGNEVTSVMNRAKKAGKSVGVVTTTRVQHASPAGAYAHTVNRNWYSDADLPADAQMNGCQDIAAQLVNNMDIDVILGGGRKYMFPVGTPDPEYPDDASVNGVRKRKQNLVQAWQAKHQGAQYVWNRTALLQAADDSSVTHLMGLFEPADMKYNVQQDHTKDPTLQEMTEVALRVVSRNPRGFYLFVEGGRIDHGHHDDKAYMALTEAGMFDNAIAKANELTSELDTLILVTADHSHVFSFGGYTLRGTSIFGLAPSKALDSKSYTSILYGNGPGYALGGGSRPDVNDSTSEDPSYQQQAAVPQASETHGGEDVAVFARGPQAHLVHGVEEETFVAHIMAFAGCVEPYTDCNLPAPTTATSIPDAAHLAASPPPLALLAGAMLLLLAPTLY", "description": "Inhibition of calf intestinal alkaline phosphatase using pNPP as substrate preincubated for 10 mins followed by substrate addition measured after 30 mins"}, "[10]": {"biological_target": "Aldo-keto reductase family 1 member B1 (Bos taurus) (UniProt P16116)", "test": "Potency index, ratio of sulindac IC50 to compound IC50 for calf lens ALR2"}, "Bos taurus": {"organism": "Bos taurus", "test": "Selectivity index, ratio of IC50 for bovine kidney ALR1 to IC50 for calf lens ALR2"}, "Cholinesterase [11]": {"biological_target": "Cholinesterase (Homo sapiens, UniProt P06276)", "sequence (P06276 whole entry)": "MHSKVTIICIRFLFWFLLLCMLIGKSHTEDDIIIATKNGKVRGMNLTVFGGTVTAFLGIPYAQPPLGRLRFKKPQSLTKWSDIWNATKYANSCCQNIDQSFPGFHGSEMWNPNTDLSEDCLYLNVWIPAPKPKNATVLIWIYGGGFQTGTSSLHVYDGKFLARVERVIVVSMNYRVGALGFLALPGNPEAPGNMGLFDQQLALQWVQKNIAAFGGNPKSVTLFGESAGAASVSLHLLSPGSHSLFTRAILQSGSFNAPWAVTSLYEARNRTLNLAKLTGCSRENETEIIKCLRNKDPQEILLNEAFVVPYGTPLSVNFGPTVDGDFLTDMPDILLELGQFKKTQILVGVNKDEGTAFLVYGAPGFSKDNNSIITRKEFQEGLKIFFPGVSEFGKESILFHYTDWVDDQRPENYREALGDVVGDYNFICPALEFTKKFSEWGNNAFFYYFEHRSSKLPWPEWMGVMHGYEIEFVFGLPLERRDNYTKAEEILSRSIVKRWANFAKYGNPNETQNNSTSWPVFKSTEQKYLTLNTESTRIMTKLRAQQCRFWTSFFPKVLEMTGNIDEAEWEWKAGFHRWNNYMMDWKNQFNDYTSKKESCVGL", "test": "Inhibition of human plasmatic BuChE using butylthiocholine as substrate preincubated for 5 mins followed by substrate addition measured at 1 min time interval by Ellman's method"}, "Acetylcholinesterase [12]": {"biological_target": "T2, Acetylcholinesterase (Homo sapiens, UniProt P22303)", "T2 sequence (P22303 whole entry)": "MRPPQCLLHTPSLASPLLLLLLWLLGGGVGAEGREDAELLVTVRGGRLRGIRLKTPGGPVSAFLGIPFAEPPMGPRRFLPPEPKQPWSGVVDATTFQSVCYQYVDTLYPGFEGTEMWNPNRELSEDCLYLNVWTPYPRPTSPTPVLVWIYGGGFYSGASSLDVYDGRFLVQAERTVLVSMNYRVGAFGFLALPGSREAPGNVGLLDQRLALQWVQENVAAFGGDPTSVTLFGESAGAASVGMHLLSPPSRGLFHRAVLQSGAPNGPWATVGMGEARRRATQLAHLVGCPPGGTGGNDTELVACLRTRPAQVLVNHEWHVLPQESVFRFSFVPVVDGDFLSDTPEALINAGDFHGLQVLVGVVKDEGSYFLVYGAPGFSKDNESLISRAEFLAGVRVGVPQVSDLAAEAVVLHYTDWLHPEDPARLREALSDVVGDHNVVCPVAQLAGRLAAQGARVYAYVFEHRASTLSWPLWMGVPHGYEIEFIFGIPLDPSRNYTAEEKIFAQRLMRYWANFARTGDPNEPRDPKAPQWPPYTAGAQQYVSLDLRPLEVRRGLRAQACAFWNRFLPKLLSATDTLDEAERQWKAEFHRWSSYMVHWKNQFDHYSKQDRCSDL", "test": "Potency index, ratio of 7-MEOTA IC50 to compound IC50 for human erythrocyte AChE"}, "Acetylcholinesterase [13]": {"biological_target": "T2, Acetylcholinesterase"}, "[14]": {"test": "Non-competitive inhibition of baker's yeast alpha-glucosidase using pNPG as substrate preincubated for 10 mins followed by substrate addition measured after 30 mins by Lineweaver-Burk plot analysis", "set-up": "species or system Saccharomyces cerevisiae"}},
  "note": "pIC50, pKi: −log10 of the molar value.",
  "data": [
    {"molecule": "CC1=CC/C(=N/N=C(\\C)c2cc3ccccc3oc2=O)N1C", "values": [
      {"measurement": "inhibition in vivo at 10 µmol/kg", "setting": "Rattus norvegicus [1]", "result": 90, "unit": "%"},
      {"measurement": "pIC50", "setting": "[2]", "result": "3.78 to 4.25"}
    ]},
    {"molecule": "O=c1oc2ccccc2cc1-c1nn(CN2CCOCC2)c(=S)o1", "values": [
      {"measurement": "pIC50", "setting": "[3]", "result": 6.47}
    ]},
    {"molecule": "O=C(Cn1c(Cc2ccc(Br)cc2)nc2ccccc2c1=O)NNC(=O)c1cc2ccccc2oc1=O", "values": [
      {"measurement": "Ratio IC50", "setting": "Saccharomyces cerevisiae", "result": "4 to 5"}
    ]},
    {"molecule": "O=c1oc2ccccc2c(O)c1/C=C/n1cnc2c(N3CCCCC3)ncnc21", "values": [
      {"measurement": "Ratio IC50", "setting": "[4]", "result": 4},
      {"measurement": "pIC50", "setting": "Lipoxygenase", "result": 5.20}
    ]},
    {"molecule": "COc1cc(C2CC(c3cc4ccccc4oc3=O)=NN2c2nc(-c3ccc(Br)cc3)cs2)ccc1OCc1ccccc1", "note": "(configuration not stated)", "values": [
      {"measurement": "pIC50", "setting": "Tyrosinase", "result": 8.34}
    ]},
    {"molecule": "O=c1oc2ccccc2c(O)c1/C=C/n1cnc2c(NCc3ccccc3)ncnc21", "values": [
      {"measurement": "pIC50", "setting": "Lipoxygenase", "result": 4.70}
    ]},
    {"molecule": "O=C(Nc1ccc(F)cc1)Nc1nc(-c2cc3cc([N+](=O)[O-])ccc3oc2=O)cs1", "values": [
      {"measurement": "pIC50", "setting": "Cholinesterase [5]", "result": 5.31},
      {"measurement": "Ratio IC50", "setting": "[6]", "result": 4}
    ]},
    {"molecule": "C/C(=N\\N=C1\\CCC(=O)N1C)c1cc2ccccc2oc1=O", "values": [
      {"measurement": "inhibition in vivo at 10 µmol/kg", "setting": "Rattus norvegicus [1]", "result": 71.9, "unit": "%"},
      {"measurement": "pIC50", "setting": "[2]", "result": "3.78 to 4.25"}
    ]},
    {"molecule": "O=c1oc2ccccc2cc1-c1nn(CNc2ccccc2Cl)c(=S)o1", "values": [
      {"measurement": "pIC50", "setting": "[3]", "result": 6.51}
    ]},
    {"molecule": "CCOC(=O)C1=C(C)N(CC)/C(=N\\N=C(/C)c2cc3ccccc3oc2=O)C1", "values": [
      {"measurement": "inhibition in vivo at 10 µmol/kg", "setting": "Rattus norvegicus [1]", "result": 94.5, "unit": "%"},
      {"measurement": "pIC50", "setting": "[2]", "result": "3.78 to 4.25"}
    ]},
    {"molecule": "CCN1C(C)=CC/C1=N/N=C(\\C)c1cc2ccccc2oc1=O", "values": [
      {"measurement": "inhibition in vivo at 10 µmol/kg", "setting": "Rattus norvegicus [1]", "result": 88.9, "unit": "%"},
      {"measurement": "pIC50", "setting": "[2]", "result": "3.78 to 4.25"}
    ]},
    {"molecule": "O=C(Cn1c(Cc2ccc(Cl)c(Cl)c2)nc2ccccc2c1=O)NNC(=O)c1cc2ccccc2oc1=O", "values": [
      {"measurement": "Ratio IC50", "setting": "Saccharomyces cerevisiae", "result": "4 to 5"}
    ]},
    {"molecule": "CCCCNCn1nc(-c2cc3ccccc3oc2=O)oc1=S", "values": [
      {"measurement": "Ratio IC50", "setting": "[7]", "result": 17}
    ]},
    {"molecule": "O=c1oc2cc(Cl)ccc2cc1-c1nc2ccccc2[nH]1", "values": [
      {"measurement": "inhibition in vivo at 20 mg/kg", "setting": "Rattus norvegicus [8]", "result": 47, "unit": "%"}
    ]},
    {"molecule": "C/C(=N\\N=C1\\CC(C)C(=O)N1C)c1cc2ccccc2oc1=O", "note": "(configuration not stated)", "values": [
      {"measurement": "inhibition in vivo at 10 µmol/kg", "setting": "Rattus norvegicus [1]", "result": 92.2, "unit": "%"},
      {"measurement": "pIC50", "setting": "[2]", "result": "3.78 to 4.25"},
      {"measurement": "Ratio IC50", "setting": "Homo sapiens", "result": 223}
    ]},
    {"molecule": "C/C(=N\\Nc1nc(-c2cc3ccccc3oc2=O)cs1)c1ccc(Cl)cc1N", "values": [
      {"measurement": "Ratio IC50", "setting": "[7]", "result": 125}
    ]},
    {"molecule": "Cc1ccc(-n2c(-c3cc4ccccc4oc3=O)cs/c2=N/NC(=O)c2cc3ccccc3oc2=O)c(C)c1", "values": [
      {"measurement": "pIC50", "setting": "[9]", "result": 5.86}
    ]},
    {"molecule": "C/C(=N\\Nc1nc(-c2cc3ccccc3oc2=O)cs1)c1ccc(Br)cc1", "values": [
      {"measurement": "pIC50", "setting": "[3]", "result": 6.96},
      {"measurement": "Ratio IC50", "setting": "[10]", "result": 3},
      {"measurement": "Ratio IC50", "setting": "Bos taurus", "result": 9.17}
    ]},
    {"molecule": "O=C(Cc1cc(=O)oc2cc(O)ccc12)NCCCCCCCNC(=O)c1cccc2c(=O)c3ccccc3[nH]c12", "values": [
      {"measurement": "pIC50", "setting": "Cholinesterase [11]", "result": 4.49},
      {"measurement": "Ratio IC50", "setting": "Acetylcholinesterase [12]", "result": 3},
      {"measurement": "pIC50", "setting": "Acetylcholinesterase [13]", "result": 5.23}
    ]},
    {"molecule": "O=C(N/N=C/c1cc(Cl)cc(Cl)c1O)c1nc(-c2cc3ccccc3oc2=O)cs1", "values": [
      {"measurement": "pKi", "setting": "[14]", "result": 5.16}
    ]}
  ]
}
